From ChEMBL document CHEMBL3880428, “Sulfonamide derivative having PGD2 receptor antagonistic activity” (2012)

How the values were obtained:
Rattus norvegicus [1] = test: (§1) Antiallergic activity in Brown Norway rat model of ovalbumin-induced asthma assessed as inhibition of mucus secretion in airway lavage fluid at 10 mg/kg, po qd for 3 consecutive days administered 1 hr prior to fourth exposure of antigen by ELISA relative to control; type: functional
Rattus norvegicus [2] = test: as §1, with “infiltration of inflammatory cells” for “mucus secretion”, “bronchoalveoli” for “airway lavage fluid”, “hemocytometry based light microscopy” for “ELISA”; type: functional
Rattus norvegicus [3] = test: Antiallergic activity in Brown Norway rat model of ovalbumin-induced asthma assessed as inhibition of airway hyperresponsiveness at 10 mg/kg, po qd for 3 consecutive days administered 1 hr prior to fourth exposure of antigen relative to control; type: functional
HEK293 [4] = test: Selectivity ratio of IC50 for PGD2 receptor in human platelets to IC50 for human EP3 receptor expressed in HEK293 cells by cAMP accumulation assay; type: cell-based
HEK293 [5] = test: Selectivity ratio of IC50 for PGD2 receptor in human platelets to IC50 for human IP receptor expressed in HEK293 cells by cAMP accumulation assay; type: cell-based
HEK293 [6] = test: Selectivity ratio of IC50 for PGD2 receptor in human platelets to IC50 for human EP2 receptor expressed in HEK293 cells by cAMP accumulation assay; type: cell-based
HEK293 [7] = test: Selectivity ratio of IC50 for PGD2 receptor in human platelets to IC50 for human TP receptor expressed in HEK293 cells by cAMP accumulation assay; type: cell-based
HEK293 [8] = test: Selectivity ratio of IC50 for PGD2 receptor in human platelets to IC50 for human FP receptor expressed in HEK293 cells by cAMP accumulation assay; type: cell-based
HEK293 [9] = test: Selectivity ratio of IC50 for PGD2 receptor in human platelets to IC50 for human EP1 receptor expressed in HEK293 cells by cAMP accumulation assay; type: cell-based
HEK293 [10] = test: Selectivity ratio of IC50 for PGD2 receptor in human platelets to IC50 for human EP4 receptor expressed in HEK293 cells by cAMP accumulation assay; type: cell-based

| Compound | inhibition in vivo at 10 mg/kg (Rattus norvegicus [1]) | inhibition in vivo at 10 mg/kg (Rattus norvegicus [2]) | inhibition in vivo at 10 mg/kg (Rattus norvegicus [3]) | Ratio IC50 (HEK293 [4]) | Ratio IC50 (HEK293 [5]) | Ratio IC50 (HEK293 [6]) | Ratio IC50 (HEK293 [7]) | Ratio IC50 (HEK293 [8]) | Ratio IC50 (HEK293 [9]) | Ratio IC50 (HEK293 [10]) |
| --- | --- | --- | --- | --- | --- | --- | --- | --- | --- | --- |
| CC(C)Oc1ccc(S(=O)(=O)N2CCN(c3cccc(OCC(=O)O)c3)CC2)cc1 | 78% | 78% | 50% |  |  |  |  |  |  |  |
| CC(C)Oc1ccc(S(=O)(=O)N2CCN(c3ccccc3OCC(=O)O)CC2)cc1 | 79% | 76% | 59% |  |  |  |  |  |  |  |
| CC(C)Oc1ccc(S(=O)(=O)N2CCN(c3ccc(-c4ccco4)c(OCC(=O)O)c3)CC2)cc1 |  |  |  | > 20 | > 20 | > 20 | > 20 | > 20 | > 20 | > 20 |
| CC(C)Oc1ccc(S(=O)(=O)N2CCN(c3ccc4ncn(CC(=O)O)c4c3)CC2)cc1 |  |  |  | > 20 | > 20 | > 20 | > 20 | > 20 | > 20 | > 20 |
| CC(C)Oc1ccc(S(=O)(=O)N2CCN(c3ccc([N+](=O)[O-])c(OCC(=O)O)c3)CC2)cc1 |  |  |  | > 20 | > 20 | > 20 | > 20 | > 20 | > 20 | > 20 |
| CC(C)Oc1ccc(S(=O)(=O)N2CCN(c3cc(F)cc(OCC(=O)O)c3)CC2)cc1 |  |  |  | > 20 | > 20 | > 20 | > 20 | > 20 | > 20 | > 20 |
| CC(C)Oc1ccc(S(=O)(=O)N2CCN(c3ccc(Br)c(OCC(=O)O)n3)CC2)cc1 |  |  |  | > 20 | > 20 | > 20 | > 20 | > 20 | > 20 | > 20 |
| CC(C)Oc1ccc(S(=O)(=O)N2CCN(c3ccc(C#N)c(OCC(=O)O)c3)CC2)cc1 |  |  |  | > 20 | > 20 | > 20 | > 20 | > 20 | > 20 | > 20 |
| COCC#Cc1cc(OCC(=O)O)cc(N2CCN(S(=O)(=O)c3ccc(OC(C)C)cc3)CC2)c1 |  |  |  | > 20 | > 20 | > 20 | > 20 | > 20 | > 20 | > 20 |
| CC(C)NC(=O)Nc1ccc(N2CCN(S(=O)(=O)c3ccc(OC(C)C)cc3)CC2)cc1OCC(=O)O |  |  |  | > 20 | > 20 | > 20 | > 20 | > 20 | > 20 | > 20 |
